# Where two headings read alike, the source gives them in different places.
# How the values were obtained:
# Assay type in all cases: in vivo
# [1] = tested on: wild poinsettia (Euphorbia heterophylla); assay: Test E greenhouse herbicide test, pre- and postemergence
# Procedure, shortened: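 Compounds in surfactant-containing solvent are applied to soil right after sowing (silt loam) and, in parallel, to 1- to 4-leaf plants in a peat-based medium. Weed control is scored visually on a 0 (none) to 100 (complete) scale at 14 to 21 d.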
# [2] = tested on: ALOMY, blackgrass (Alopecurus myosuroides); assay: Test F mixtures with commercial herbicides, Post- or Pre-emergence; conditions: Table F3, Post-emergence, scale 0-100
# Experimental: (§1) This test evaluated the effect of mixtures of Compound 1 or Compound 2 with various commercial herbicides on multiple plant species. Seeds of multiple plant species selected were planted into Sandy Loam soil and treated either Post-emergence or Pre-emergence with test chemicals formulated in a non-phytotoxic solvent mixture. Plants were grown in a greenhouse using supplemental lighting to maintain a photoperiod of approximately 16 h; daytime and nighttime temperatures were approximately 24-30 and 19-21° C., respectively. Balanced fertilizer was applied through the watering system. Treated plants and controls were maintained in a greenhouse for 20 d, after which time all species were compared to controls and visually evaluated. Plant response ratings summarized in Tables F1 through F4 and are based on a scale of 0 to 100 where 0 is no effect and 100 is complete control. A dash (-) response means no test result. Application rates (i.e. “Rate”) are expressed in grams of active ingredient per hectare (g a.i./ha). In the following tables KCHSC is kochia (Kochia scoparia), LOLMU in Italian Ryegrass (Lolium multiflorum), AMBEL is common ragweed (Ambrosia elatior), ECHCG is barnyardgrass (Echinochloa crus-galli), SETVI is giant foxtail (Setaria faberii), AMARE is redroot pigweed (Amaranthus retroflexus), ALOMY is blackgrass (Alopecurus myosuroides) and GALAP is galium (Galium aparine). “Obsd.” is observed effect. “Exp.” is expected effect calculated from Colby's Equation.
# (§2) Colby's Equation was used to determine the herbicidal effects expected from the mixtures. Colby's Equation (Colby, S. R. “Calculating Synergistic and Antagonistic Responses of Herbicide Combinations,” Weeds, 15(1), pp 20-22 (1967)) calculates the expected additive effect of herbicidal mixtures, and for two active ingredients is of the form: Pa+b=Pa+Pb−(PaPb/100)
# (§3) wherein Pa+b is the percentage effect of the mixture expected from additive contribution of the individual components:
# (§4) Pa is the observed percentage effect of the first active ingredient at the same use rate as in the mixture, and
# (§5) Pb is the observed percentage effect of the second active ingredient at the same use rate as in the mixture.
# [3] = tested on: ECHCG, barnyardgrass (Echinochloa crus-galli); assay: as above; conditions: scale 0-100
# Experimental: as §1, §2, §3, §4, §5
# [4] = tested on: crabgrass, large (large crabgrass, Digitaria sanguinalis); assay: Test A greenhouse herbicide test, pre- and postemergence; conditions: Digitaria sanguinalis, 240 h; for pest or weed control at 125 g/ha: 125 g ai/ha; for pest or weed control at 500 g/ha: 500 g ai/ha, 0 to 100 scale
# Procedure, shortened: (§6)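 Visual injury ratings, 0 (no effect) to 100 (complete control), versus untreated plants after roughly 10 d in a greenhouse. Compounds, formulated in a surfactant-containing non-phytotoxic solvent, were sprayed on loam–sand soil after sowing (pre) or on one- to two-leaf plants 2–10 cm tall (post).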
# [5] = tested on: momingglory (Ipomoea spp.); assay: as above; conditions: Ipomoea, 240 h; for pest or weed control at 125 g/ha: 125 g ai/ha; for pest or weed control at 500 g/ha: 500 g ai/ha, 0 to 100 scale
# Procedure, shortened: as §6
# [6] = tested on: velvetleaf (Abutilon theophrasti); assay: as above; conditions: Abutilon theophrasti, 240 h; for pest or weed control at 125 g/ha: 125 g ai/ha; for pest or weed control at 500 g/ha: 500 g ai/ha, 0 to 100 scale
# Procedure, shortened: as §6
smiles,measurement,setting,value
"Cc1cc(C)c2sc(C)c(-c3c(O)c(C)nn(C)c3=O)c2c1 [Compound 2, 5-hydroxy-2,6-dimethyl-4-(2,5,7-trimethylbenzo[b]thien-3-yl)-3(2H)-pyridazinone]","Plant response rating, Poinsettia, Wild","[1]; 62 g ai/ha, Postemergence, scale 0 to 100 (0 no effect, 100 complete control)",0
same,"Plant response rating, Poinsettia, Wild","[1]; 62 g ai/ha, Preemergence, scale 0 to 100 (0 no effect, 100 complete control)",30
same,"Plant response rating, Poinsettia, Wild","[1]; 125 g ai/ha, Postemergence, scale 0 to 100 (0 no effect, 100 complete control)",15
same,"Plant response rating, Poinsettia, Wild","[1]; 125 g ai/ha, Preemergence, scale 0 to 100 (0 no effect, 100 complete control)",30
same,"Plant response rating, Poinsettia, Wild","[1]; 250 g ai/ha, Postemergence, scale 0 to 100 (0 no effect, 100 complete control)",15
same,"Plant response rating, Poinsettia, Wild","[1]; Postemergence, 16 g ai/ha, visual, scale 0 no effect to 100 complete control",0
same,"Plant response rating, Poinsettia, Wild","[1]; Postemergence, 31 g ai/ha, visual, scale 0 no effect to 100 complete control",0
same,"Plant response rating, Poinsettia, Wild","[1]; Preemergence, 16 g ai/ha, scale 0 to 100, 0 no effect, 100 complete control",0
same,"Plant response rating, Poinsettia, Wild","[1]; Preemergence, 31 g ai/ha, scale 0 to 100, 0 no effect, 100 complete control",25
same,"Plant response rating, Poinsettia, Wild","[1]; Preemergence, 250 g ai/ha, visual, scale 0 no effect to 100 complete control",50
same,ALOMY Obsd.,[2]; Rate 16 g a.i./ha,20
same,ALOMY Obsd.,[2]; Rate 62 g a.i./ha,60
same,ECHCG Obsd.,"[3]; Pre-emergence, Rate 16 g a.i./ha",0
same,ECHCG Obsd.,"[3]; Pre-emergence, Rate 62 g a.i./ha",25
same,ECHCG Obsd.,"[3]; Table F3, Post-emergence, Rate 16 g a.i./ha",5
same,ECHCG Obsd.,"[3]; Table F3, Post-emergence, Rate 62 g a.i./ha",20
same,pest or weed control at 125 g/ha,"[4]; post-emergence, Postemergence, visual rating after approx. 10 d, 0 to 100 scale (0 no effect, 100 complete control), read-out: Plant response rating, Crabgrass, Large",50%
same,pest or weed control at 500 g/ha,"[4]; post-emergence, Postemergence, 0 is no effect, 100 is complete control, read-out: Crabgrass, Large plant response rating",70%
same,pest or weed control at 125 g/ha,"[4]; pre-emergence, Preemergence, 0 to 100 scale where 0 is no effect and 100 is complete control, read-out: Crabgrass, Large plant response rating",90%
same,pest or weed control at 500 g/ha,"[4]; pre-emergence, Preemergence, 0 no effect, 100 complete control, read-out: Plant response rating, Crabgrass, Large",100%
same,pest or weed control at 125 g/ha,"[5]; post-emergence, Postemergence, visual rating after approx. 10 d, 0 to 100 scale (0 no effect, 100 complete control), read-out: Plant response rating, Morningglory",100%
same,pest or weed control at 500 g/ha,"[5]; post-emergence, Postemergence, 0 is no effect, 100 is complete control, read-out: Morningglory plant response rating",100%
same,pest or weed control at 125 g/ha,"[5]; pre-emergence, Preemergence, 0 to 100 scale where 0 is no effect and 100 is complete control, read-out: Morningglory plant response rating",80%
same,pest or weed control at 500 g/ha,"[5]; pre-emergence, Preemergence, 0 no effect, 100 complete control, read-out: Plant response rating, Morningglory",100%
same,pest or weed control at 125 g/ha,"[6]; post-emergence, Postemergence, visual rating after approx. 10 d, 0 to 100 scale (0 no effect, 100 complete control), read-out: Plant response rating, Velvetleaf",100%
same,pest or weed control at 500 g/ha,"[6]; post-emergence, Postemergence, 0 is no effect, 100 is complete control, read-out: Velvetleaf plant response rating",100%
same,pest or weed control at 125 g/ha,"[6]; pre-emergence, Preemergence, 0 to 100 scale where 0 is no effect and 100 is complete control, read-out: Velvetleaf plant response rating",80%
same,pest or weed control at 500 g/ha,"[6]; pre-emergence, Preemergence, 0 no effect, 100 complete control, read-out: Plant response rating, Velvetleaf",90%

# Source: patent US10597388B2, “Pyridazinone herbicides” (FMC CORPORATION, priority 2014, dated 2020)
